Values of other authors as cited in patent publication US20190381039A1, “USE OF sGC STIMULATORS FOR THE TREATMENT OF ESOPHAGEAL MOTILITY DISORDERS” (Cyclerion Therapeutics, Inc., priority 2016, published 2019).

Legend:
[1] = test system: patients with esophageal motility abnormalities
[2] = test system: patients with idiopathic achalasia
[3] = report from 2000, patients with esophageal dysmotility

SMILES: O=c1n(CCCN2CCN(c3cccc(Cl)c3)CC2)nc2ccccn12 [trazodone]
- relief of chest pain [1]: effective in relieving chest pain

SMILES: CCCc1nn(C)c2c(=O)[nH]c(-c3cc(S(=O)(=O)N4CCN(C)CC4)ccc3OCC)nc12 [sildenafil]
- utility in achalasia patients (off label) ([2]; Bortolotti et al., Gastroenterology 118(2): 253-7, 2000): some limited utility
- side effects reported by patients ([2]; report from 2000): dizziness and headaches
- LES pressure [2, 3]: able to reduce LES pressure
- clinical symptoms [2, 3]: clinical symptoms were not improved

SMILES: CN(C)CCCN1c2ccccc2CCc2ccccc21 [imipramine]
- relief of chest pain [1]: effective in relieving chest pain
